pEC50, pIC50: −log10 of the molar value. Where two headings read alike, the source gives them in different places.
Test system: 280 human cancer cell lines
Test: OncoPanel cell proliferation assay (10-day)
Type: cell-based
Conditions: Homo sapiens; for GI50: read-out: Cell Count GI50; for pIC50: read-out: Cell Count IC50; for pEC50: read-out: Cell Count EC50
[1] = KHOS-240S, Soft Tissue - Osteosarcoma
[2] = ME-180, ME-180, Female GU - Ovary
[3] = MG-63, MG-63, Soft Tissue - Osteosarcoma
[4] = MHH-PREB-1, MHH-PREB-1, Leukemia
[5] = MIA PaCa-2, Mia PaCa-2, Pancreas
[6] = MS751, MS751, Female GU - Ovary
[7] = Malme-3M, MALME3M, Skin (Melanoma)
[8] = NCI-H292, NCI-H292, Lung - NSCLC
[9] = NCI-H295R, Endocrine - Adrenal gland
[10] = NCI-H441, NCIH441, Lung - NSCLC
[11] = NCI-H460, NCI-H460, Lung - NSCLC
[12] = NCI-H520, NCI-H520, Lung - NSCLC
[13] = NCI-H596, NCI-H596, Lung - NSCLC
[14] = NCI-H661, NCI-H661, Lung - NSCLC
[15] = NTERA-2-cl-D1, NTERA-2 cl.D1, Testis
[16] = OVCAR-3, OVCAR3, Female GU - Ovary
[17] = RPMI-7951, RPMI-7951, Skin (Melanoma)
[18] = SAOS-2, SaOS2, Soft Tissue - Osteosarcoma

CC(C)=CCC[C@H](C)[C@@H]1CC[C@@H](C)c2c1cc(C)c(O)c2O [Compound 4, 7,8-dihydroxyserrulat-14-ene]
GI50 [1]: 4.96 µM
pIC50 [1]: 5.30
pEC50 (KLE, Female GU - Uterus): 4.74
GI50 (KLE, Female GU - Uterus): 16.6 µM
pIC50 (KLE, Female GU - Uterus): 4.74
pEC50 (KPL-1, KPL-1, Breast): 5.38
GI50 (KPL-1, KPL-1, Breast): 4.13 µM
pIC50 (KPL-1, KPL-1, Breast): 5.38
pEC50 (KU812, KU812, Leukemia): 5.02
GI50 (KU812, KU812, Leukemia): 9.13 µM
pIC50 (KU812, KU812, Leukemia): 5.02
pEC50 (L-428, L-428, Lymphoma): 5.68
GI50 (L-428, L-428, Lymphoma): 2.06 µM
pIC50 (L-428, L-428, Lymphoma): 5.68
pEC50 (LNCaP, Prostate): 4.94
GI50 (LNCaP, Prostate): 12.4 µM
pIC50 (LNCaP, Prostate): 4.89
pEC50 (LS-123, LS123, Colon): 4.92
GI50 (LS-123, LS123, Colon): 10.7 µM
pIC50 (LS-123, LS123, Colon): 4.92
pEC50 (LS-411N, LS411N, Colon): 4.64
GI50 (LS-411N, LS411N, Colon): 22.6 µM
pIC50 (LS-411N, LS411N, Colon): 4.64
pEC50 (LS-1034, LS1034, Colon): 4.63
GI50 (LS-1034, LS1034, Colon): 23.5 µM
pIC50 (LS-1034, LS1034, Colon): 4.63
pEC50 (M059J, CNS - Glioma): 4.89
GI50 (M059J, CNS - Glioma): 12.9 µM
pIC50 (M059J, CNS - Glioma): 4.89
pEC50 (MC116, MC116, Lymphoma): 4.90
GI50 (MC116, MC116, Lymphoma): 12.4 µM
pIC50 (MC116, MC116, Lymphoma): 4.90
pEC50 (MC-IXC, CNS - Neuroblastoma): 5.16
GI50 (MC-IXC, CNS - Neuroblastoma): 6.88 µM
pIC50 (MC-IXC, CNS - Neuroblastoma): 5.16
pEC50 (MCF7, MCF7, Breast): 4.92
GI50 (MCF7, MCF7, Breast): 11.9 µM
pIC50 (MCF7, MCF7, Breast): 4.92
pEC50 (MDA-MB-231, MDA MB 231, Breast): 4.94
GI50 (MDA-MB-231, MDA MB 231, Breast): 11.3 µM
pIC50 (MDA-MB-231, MDA MB 231, Breast): 4.94
pEC50 (MDA-MB-436, MDA-MB-436, Breast): 4.99
GI50 (MDA-MB-436, MDA-MB-436, Breast): 10.2 µM
pIC50 (MDA-MB-436, MDA-MB-436, Breast): 4.99
pEC50 (MDA-MB-453, MDA MB 453, Breast): 5.42
GI50 (MDA-MB-453, MDA MB 453, Breast): 3.68 µM
pIC50 (MDA-MB-453, MDA MB 453, Breast): 5.42
pEC50 (MDA-MB-468, MDA MB 468, Breast): 5.13
GI50 (MDA-MB-468, MDA MB 468, Breast): 7.34 µM
pIC50 (MDA-MB-468, MDA MB 468, Breast): 5.13
pEC50 [2]: 4.60
GI50 [2]: 25.2 µM
pIC50 [2]: 4.60
pEC50 (MEG-01, MEG01, Leukemia): 5.08
GI50 (MEG-01, MEG01, Leukemia): 8.37 µM
pIC50 (MEG-01, MEG01, Leukemia): 5.08
pEC50 (MES-SA, Soft Tissue - Sarcoma): 5.19
GI50 (MES-SA, Soft Tissue - Sarcoma): 6.44 µM
pIC50 (MES-SA, Soft Tissue - Sarcoma): 5.19
pEC50 [3]: 4.95
GI50 [3]: 11.1 µM
pIC50 [3]: 4.95
pEC50 [4]: 5.24
GI50 [4]: 5.71 µM
pIC50 [4]: 5.24
pEC50 [5]: 4.96
GI50 [5]: 11 µM
pIC50 [5]: 4.96
pEC50 (MOLT-3, MOLT-3, Leukemia): 5.50
GI50 (MOLT-3, MOLT-3, Leukemia): 3.13 µM
pIC50 (MOLT-3, MOLT-3, Leukemia): 5.50
pEC50 (MOLT-16, MOLT-16, Leukemia): 5.40
GI50 (MOLT-16, MOLT-16, Leukemia): 4.01 µM
pIC50 (MOLT-16, MOLT-16, Leukemia): 5.40
pEC50 [6]: 4.92
GI50 [6]: 12 µM
pIC50 [6]: 4.92
pEC50 (MT-3, Colon): 4.62
GI50 (MT-3, Colon): 23.8 µM
pIC50 (MT-3, Colon): 4.62
pEC50 (MV4-11, MV-4-11, Leukemia): 5.42
GI50 (MV4-11, MV-4-11, Leukemia): 3.8 µM
pIC50 (MV4-11, MV-4-11, Leukemia): 5.42
pEC50 (MX1, Leukemia): 5.61
GI50 (MX1, Leukemia): 2.46 µM
pIC50 (MX1, Leukemia): 5.61
pEC50 [7]: 4.69
GI50 [7]: 17.8 µM
pIC50 [7]: 4.69
pEC50 (MeWo, Skin (Melanoma)): 5.02
GI50 (MeWo, Skin (Melanoma)): 9.51 µM
pIC50 (MeWo, Skin (Melanoma)): 5.02
pEC50 (NALM-6, NALM-6, Leukemia): 5.58
GI50 (NALM-6, NALM-6, Leukemia): 2.61 µM
pIC50 (NALM-6, NALM-6, Leukemia): 5.58
pEC50 (NAMALWA, Lymphoma): 5.41
GI50 (NAMALWA, Lymphoma): 3.9 µM
pIC50 (NAMALWA, Lymphoma): 5.41
pEC50 (NCI-H69, NCI-H69, Lung - SCLC): 4.80
GI50 (NCI-H69, NCI-H69, Lung - SCLC): 15.1 µM
pIC50 (NCI-H69, NCI-H69, Lung - SCLC): 4.80
pEC50 [8]: 5.04
GI50 [8]: 9.19 µM
pIC50 [8]: 5.04
pEC50 [9]: 4.59
GI50 [9]: 21.6 µM
pIC50 [9]: 4.59
pEC50 [10]: 5.32
GI50 [10]: > 30 µM
pIC50 [10]: < 4.52
pEC50 (NCI-H446, NCIH446, Lung - SCLC): 5.11
GI50 (NCI-H446, NCIH446, Lung - SCLC): 7.62 µM
pIC50 (NCI-H446, NCIH446, Lung - SCLC): 5.11
pEC50 [11]: 4.91
GI50 [11]: 13 µM
pIC50 [11]: 4.89
pEC50 (NCI-H508, NCI-H508, Colon): < 4.52
GI50 (NCI-H508, NCI-H508, Colon): > 30 µM
pIC50 (NCI-H508, NCI-H508, Colon): < 4.52
pEC50 [12]: 4.68
GI50 [12]: 20.6 µM
pIC50 [12]: 4.68
pEC50 [13]: 4.55
GI50 [13]: > 30 µM
pIC50 [13]: < 4.52
pEC50 [14]: 5.23
GI50 [14]: 5.86 µM
pIC50 [14]: 5.23
pEC50 (NCI-H747, NCI-H747, Colon): 4.55
GI50 (NCI-H747, NCI-H747, Colon): 28.1 µM
pIC50 (NCI-H747, NCI-H747, Colon): 4.55
pEC50 [15]: 5.13
GI50 [15]: 7.39 µM
pIC50 [15]: 5.13
pEC50 (OCUG-1, OCUG-1, Liver): 4.81
GI50 (OCUG-1, OCUG-1, Liver): 15.5 µM
pIC50 (OCUG-1, OCUG-1, Liver): 4.81
pEC50 (OE19, OE19, Head and Neck): 4.68
GI50 (OE19, OE19, Head and Neck): 20.5 µM
pIC50 (OE19, OE19, Head and Neck): 4.68
pEC50 (OE21, OE21, Head and Neck): 4.90
GI50 (OE21, OE21, Head and Neck): 12.7 µM
pIC50 (OE21, OE21, Head and Neck): 4.90
pEC50 [16]: 4.81
GI50 [16]: 14.9 µM
pIC50 [16]: 4.81
pEC50 (PA-1, Female GU - Ovary): 5.10
GI50 (PA-1, Female GU - Ovary): 7.89 µM
pIC50 (PA-1, Female GU - Ovary): 5.10
pEC50 (PANC-1, PANC-1, Pancreas): 4.93
GI50 (PANC-1, PANC-1, Pancreas): 11.6 µM
pIC50 (PANC-1, PANC-1, Pancreas): 4.93
pEC50 (PC-3, Prostate): 5.11
GI50 (PC-3, Prostate): 7.64 µM
pIC50 (PC-3, Prostate): 5.11
pEC50 (PFSK-1, PFSK-1, CNS - Glioma): 5.42
GI50 (PFSK-1, PFSK-1, CNS - Glioma): 3.8 µM
pIC50 (PFSK-1, PFSK-1, CNS - Glioma): 5.42
pEC50 (PSN1, PSN-1, Pancreas): 5.30
GI50 (PSN1, PSN-1, Pancreas): 5.04 µM
pIC50 (PSN1, PSN-1, Pancreas): 5.30
pEC50 (RD, Soft Tissue - Sarcoma): 5.28
GI50 (RD, Soft Tissue - Sarcoma): 5.17 µM
pIC50 (RD, Soft Tissue - Sarcoma): 5.28
pEC50 (RKO, Colon): 4.92
GI50 (RKO, Colon): 12 µM
pIC50 (RKO, Colon): 4.92
pEC50 (RKOE6, RKOE6, Colon): 5.17
GI50 (RKOE6, RKOE6, Colon): 6.76 µM
pIC50 (RKOE6, RKOE6, Colon): 5.17
pEC50 (RPMI-6666, RPMI 6666, Lymphoma): 4.64
GI50 (RPMI-6666, RPMI 6666, Lymphoma): 23 µM
pIC50 (RPMI-6666, RPMI 6666, Lymphoma): 4.64
pEC50 [17]: 5.00
GI50 [17]: 9.96 µM
pIC50 [17]: 5.00
pEC50 (RPMI-8226, RPMI 8226, Myeloma): 5.52
GI50 (RPMI-8226, RPMI 8226, Myeloma): 3.03 µM
pIC50 (RPMI-8226, RPMI 8226, Myeloma): 5.52
pEC50 (RS4-11, RS4, 11, Leukemia): 5.38
GI50 (RS4-11, RS4, 11, Leukemia): 4.16 µM
pIC50 (RS4-11, RS4, 11, Leukemia): 5.37
pEC50 (Raji, Lymphoma): 5.41
GI50 (Raji, Lymphoma): 3.92 µM
pIC50 (Raji, Lymphoma): 5.41
pEC50 (Ramos, Ramos (RA 1), Lymphoma): 5.38
GI50 (Ramos, Ramos (RA 1), Lymphoma): 4.17 µM
pIC50 (Ramos, Ramos (RA 1), Lymphoma): 5.38
pEC50 [18]: 4.97
GI50 [18]: 10.7 µM
pIC50 [18]: 4.97
pEC50 (SCC-4, SCC-4, Head and Neck): 4.80
GI50 (SCC-4, SCC-4, Head and Neck): 15.5 µM
pIC50 (SCC-4, SCC-4, Head and Neck): 4.80
pEC50 (SCC-9, SCC-9, Head and Neck): 4.78
GI50 (SCC-9, SCC-9, Head and Neck): 16.4 µM
pIC50 (SCC-9, SCC-9, Head and Neck): 4.78
pEC50 (SCC-25, SCC-25, Head and Neck): 4.60
GI50 (SCC-25, SCC-25, Head and Neck): 25 µM
pIC50 (SCC-25, SCC-25, Head and Neck): 4.60
pEC50 (SCaBER, Bladder): 4.77
GI50 (SCaBER, Bladder): 16.8 µM
